# Experimental data from patent publication US20140147431A1, “Compositions and Methods for Modulating Desnutrin-Mediated Adipocyte Lipolysis” (The Regents of the University of California, priority 2010, published 2014).
# Tests used:
# [1] = tested on: HEK 293 cells transfected with mutant S406A-desnutrin-HA-GFP; assay: Glycerol release (lipolysis) from oleate loaded HEK 293 cells transfected with mutant S406A-desnutrin-HA-GFP; type: cell-based; conditions: treated with AICAR vs without
# Experimental: (§1) Gonadal fat pads or BAT from overnight fasted mice were cut into 50 mg samples and incubated at 37° C. without shaking in […] of Krebs-Ringer buffer (12 mM HEPES, 121 mM NaCl, 4.9 mM KCl, 1.2 mM MgSO4 and 0.33 mM CaCl2) containing 2% fatty acid free bovine serum albumin (BSA) and 0.1% glucose with or without 10 μM isoproterenol. Fatty acid (FA) and glycerol release were measured in aliquots from incubation buffer using the NEFA C Kit (Wako) and Free Glycerol Reagent (Sigma), respectively. […] Glycerol and fatty acid were determined using the kits described above.
# (§2) The role of AMPK in lipolysis is controversial, with several reporting AMPK stimulates lipolysis and others showing it inhibits lipolysis, via phosphorylation of HSL at S563 (Daval et al., 2005; Koh et al., 2007; Lage et al., 2008; Yin et al., 2003). To determine the effect of AMPK specifically on desnutrin-mediated Lipolysis, oleate loaded HEK 293 cells, transfected with wild type desnutrin-HA-GFP, mutant S406A-desnutrin-HA-GFP or GFP control, were treated with the cell-permeable AMPK-activator, 5-amino-4-imidazolecarboxamide riboside (AICAR), and lipolysis was determined by measuring glycerol release. […] To test the effect of AMPK on lipolysis in vivo, AICAR was administered intraperitoneally to flox/flox and desnutrin-ASKO mice and then measured serum FA levels. […]
# AMPK = assay: Effect of AMPK activation on lipolysis in vivo: serum FA levels after intraperitoneal AICAR; set-up: species or system mice; conditions: five hours after injection
# Experimental: Fasting serum triglycerides and FAs were analyzed with Infinity Triglyceride reagent (Thermo Trace) and NEFA C kit (Wako), respectively. Serum insulin, were determined using enzyme-linked immunosorbent assay kits (Alpco).
# The role of AMPK in lipolysis is controversial, with several reporting AMPK stimulates lipolysis and others showing it inhibits lipolysis, via phosphorylation of HSL at S563 (Daval et al., 2005; Koh et al., 2007; Lage et al., 2008; Yin et al., 2003). To determine the effect of AMPK specifically on desnutrin-mediated Lipolysis, oleate loaded HEK 293 cells, transfected with wild type desnutrin-HA-GFP, mutant S406A-desnutrin-HA-GFP or GFP control, were treated with the cell-permeable AMPK-activator, 5-amino-4-imidazolecarboxamide riboside (AICAR), and lipolysis was determined by measuring glycerol release. […] To test the effect of AMPK on lipolysis in vivo, AICAR was administered intraperitoneally to flox/flox and desnutrin-ASKO mice and then measured serum FA levels. […] Therefore, AMPK phosphorylates desnutrin to increase lipolysis and promote FA oxidation in adipocytes.
# FIGS. 3A-N. Desnutrin ablation converts BAT to WAT, and phosphorylation of desnutrin by AMPK increases lipolysis. […] I) FA oxidation, measured by ^14CO2 production from [U^14C] palmitate, from isolated brown adipocytes (left) and white adipocytes (right) from flox/flox and desnutrin-ASKO mice (n=4). […]
# [2] = tested on: HEK 293 cells transfected with wild type desnutrin-HA-GFP; assay: Glycerol release (lipolysis) from oleate loaded HEK 293 cells transfected with wild type desnutrin-HA-GFP; type: cell-based; conditions: treated with AICAR vs without
# Experimental: as §1, §2
# β3 adrenergic receptors = target: T1, β3 adrenergic receptors (Mus musculus, UniProt P25962); assay: Oxygen consumption (VO2) by indirect calorimetry after injection of β3-agonist; type: in vivo, mice; conditions: intraperitoneal injection 1 mg/kg body weight
# T1 construct: endogenous in cells; host or cells: living flox/flox and desnutrin-ASKO mice (whole animal)
# Experimental: Oxygen consumption (VO2) was measured using the Comprehensive Laboratory Animal Monitoring System (CLAMS; Columbus Instruments). Data were normalized to body weights. Body temperatures were assessed in 25 wk-old male mice using a RET-3 rectal probe for mice (Physitemp). […] was intraperitoneally injected into mice at 1 mg/kg body weight.
# Oxygen consumption (VO2) was measured using the Comprehensive Laboratory Animal Monitoring System (CLAMS: Columbus Instruments). Data were normalized to body weights. Body temperatures were assessed using a RET-3 rectal probe for mice (Physitemp).
# Since lipolysis and FAs are critical for thermogenesis, it was predicted that the severely blunted lipolysis in desnutrin-ASKO mice, would lead to impaired thermogenesis. Desnutrin-ASKO mice and flox/flox littermates were subjected to cold stress. […] To test this, a β3-agonist, […], was injected into desnutrin-ASKO and flox/flox mice and oxygen consumption was monitored.
# FIGS. 2A-G. Decreased lipolysis in desnutrin-ASKO mice results in impaired thermogenesis and energy expenditure. […] F) Oxygen consumption rate (VO2) measured through indirect calorimetry. G) Oxygen consumption rate (VO2) measured through indirect calorimetry after intraperitoneal injection of CL316243. […]
# [3] = target: wild type desnutrin-HA-GFP (murine) (UniProt Q8BJ56); assay: cell-based or functional assay
# Sequence of wild type desnutrin-HA-GFP (murine) (Q8BJ56 whole entry): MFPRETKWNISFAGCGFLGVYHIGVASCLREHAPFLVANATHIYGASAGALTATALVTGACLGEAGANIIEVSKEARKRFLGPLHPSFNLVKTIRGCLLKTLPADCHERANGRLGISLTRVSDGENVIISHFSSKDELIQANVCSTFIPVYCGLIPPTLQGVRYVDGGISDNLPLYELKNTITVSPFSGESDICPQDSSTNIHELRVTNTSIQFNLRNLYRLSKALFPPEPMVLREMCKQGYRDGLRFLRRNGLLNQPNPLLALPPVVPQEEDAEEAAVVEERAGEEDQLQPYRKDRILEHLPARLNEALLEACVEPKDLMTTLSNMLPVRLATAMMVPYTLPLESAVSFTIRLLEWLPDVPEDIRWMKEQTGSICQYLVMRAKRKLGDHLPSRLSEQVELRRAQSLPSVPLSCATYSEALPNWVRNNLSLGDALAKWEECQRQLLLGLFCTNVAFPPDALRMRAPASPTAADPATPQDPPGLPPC
# T1 sequence (P25962 whole entry): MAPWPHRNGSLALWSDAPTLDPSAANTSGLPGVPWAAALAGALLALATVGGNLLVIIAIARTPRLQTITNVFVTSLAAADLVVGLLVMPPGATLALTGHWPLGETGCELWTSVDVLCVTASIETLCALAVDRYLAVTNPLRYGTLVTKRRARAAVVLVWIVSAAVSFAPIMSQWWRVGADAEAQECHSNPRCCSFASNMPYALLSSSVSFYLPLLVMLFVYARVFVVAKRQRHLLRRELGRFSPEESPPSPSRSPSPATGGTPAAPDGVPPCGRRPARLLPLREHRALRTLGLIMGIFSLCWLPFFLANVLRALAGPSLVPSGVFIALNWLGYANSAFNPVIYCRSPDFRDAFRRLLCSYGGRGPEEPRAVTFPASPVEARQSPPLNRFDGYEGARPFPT
compound,measurement,setting,value
"NC(=O)c1ncn([C@@H]2O[C@H](CO)[C@@H](O)[C@H]2O)c1N [AICAR, 5-amino-4-imidazolecarboxamide riboside]",increase in glycerol release,[1],failed to do so
same,serum FA levels,AMPK; desnutrin-ASKO mice,serum FA levels were unchanged
same,serum FA levels,AMPK; flox/flox mice,increased serum FA levels
same,increase in glycerol release,[2],1.8 fold
C[C@H](Cc1ccc2c(c1)OC(C(=O)O)(C(=O)O)O2)NC[C@H](O)c1cccc(Cl)c1 [CL31624],oxygen consumption,β3 adrenergic receptors; desnutrin-ASKO mice,no change in oxygen consumption
same,metabolic rate as indicated by oxygen consumption,β3 adrenergic receptors; flox/flox mice,drastic increase in their metabolic rate
"AMPK of HEK 293 cells, activated by AICAR",glycerol release from oleate loaded HEK 293 cells treated with AICAR,[3],1.8 fold
